Measured values taken from article PMC3433420 (PLoS ONE, 2012).
Residues, ends and D or L forms follow the SMILES beside them.

How the values were obtained:
Assay in all cases: In-house protein microarrays (with or without 5 mM DTT), protein named per line
Type in all cases: binding
SH2 and PTB domains [1] = target: T1, SH2 and PTB domains (Homo sapiens, UniProt P08631); settings: protein HCK
T1 construct: thioredoxin; made in house; host or cells: BL21(DE3)pLysS E. coli
Method in brief: (§1)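 KD values come from rhodamine fluorescence of duplicate spots after subtraction of a thioredoxin control. Domains were printed at ~40 µM on aldehyde slides, blocked 1 h at room temperature in pH 7.8 HEPES/KCl buffer with 5 mM DTT and 1% BSA, then peptide-probed.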

SH2 and PTB domains [2] = target: T2, SH2 and PTB domains (Homo sapiens, UniProt P29350)
T2 construct: thioredoxin; made in house; host or cells: BL21(DE3)pLysS E. coli
T2 sequence (P29350 whole entry, the tested form may be a part): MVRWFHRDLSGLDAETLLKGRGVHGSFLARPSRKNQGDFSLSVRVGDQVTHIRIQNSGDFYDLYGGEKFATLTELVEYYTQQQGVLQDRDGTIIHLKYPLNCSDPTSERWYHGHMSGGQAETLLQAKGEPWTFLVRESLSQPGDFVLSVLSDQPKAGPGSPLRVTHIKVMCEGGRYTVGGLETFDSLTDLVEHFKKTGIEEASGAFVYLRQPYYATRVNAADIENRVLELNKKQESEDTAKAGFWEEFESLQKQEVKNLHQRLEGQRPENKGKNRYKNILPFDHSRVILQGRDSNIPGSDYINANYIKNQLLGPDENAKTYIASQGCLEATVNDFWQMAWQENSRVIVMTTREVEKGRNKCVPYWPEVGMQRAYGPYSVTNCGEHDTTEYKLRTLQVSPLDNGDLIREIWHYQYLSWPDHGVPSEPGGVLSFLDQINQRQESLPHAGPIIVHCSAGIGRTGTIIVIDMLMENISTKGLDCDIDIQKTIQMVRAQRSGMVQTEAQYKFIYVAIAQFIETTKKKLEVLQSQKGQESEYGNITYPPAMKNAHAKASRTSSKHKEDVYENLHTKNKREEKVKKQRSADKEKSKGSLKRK
Method in brief: as §1

SH2 and PTB domains [3] = target: T3, SH2 and PTB domains (Homo sapiens, UniProt P78314); settings: protein SH3BP2
T3 construct: thioredoxin; made in house; host or cells: BL21(DE3)pLysS E. coli
T3 sequence (P78314 1-561): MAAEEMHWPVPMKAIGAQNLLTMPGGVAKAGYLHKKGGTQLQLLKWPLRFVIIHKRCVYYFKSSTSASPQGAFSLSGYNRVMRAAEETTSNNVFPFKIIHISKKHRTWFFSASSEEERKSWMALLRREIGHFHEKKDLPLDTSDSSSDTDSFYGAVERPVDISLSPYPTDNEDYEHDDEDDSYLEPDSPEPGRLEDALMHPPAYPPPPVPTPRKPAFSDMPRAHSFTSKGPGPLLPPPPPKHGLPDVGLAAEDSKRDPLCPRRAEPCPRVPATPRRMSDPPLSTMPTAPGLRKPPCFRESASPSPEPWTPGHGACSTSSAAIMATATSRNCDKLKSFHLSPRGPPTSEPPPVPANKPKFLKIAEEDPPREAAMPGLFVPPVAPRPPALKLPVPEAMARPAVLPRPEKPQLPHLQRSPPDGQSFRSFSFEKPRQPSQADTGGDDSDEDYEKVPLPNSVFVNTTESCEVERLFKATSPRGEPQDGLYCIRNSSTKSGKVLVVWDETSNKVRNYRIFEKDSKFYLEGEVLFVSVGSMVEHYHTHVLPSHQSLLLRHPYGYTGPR
Method in brief: as §1

SH2 and PTB domains [4] = target: T4, SH2 and PTB domains (Homo sapiens, UniProt Q96JZ2); settings: protein HSH2D; PM assay replicate # 39307; array fabrication # 39286
T4 construct: thioredoxin; made in house; host or cells: BL21(DE3)pLysS E. coli
T4 sequence (Q96JZ2 whole entry, the tested form may be a part): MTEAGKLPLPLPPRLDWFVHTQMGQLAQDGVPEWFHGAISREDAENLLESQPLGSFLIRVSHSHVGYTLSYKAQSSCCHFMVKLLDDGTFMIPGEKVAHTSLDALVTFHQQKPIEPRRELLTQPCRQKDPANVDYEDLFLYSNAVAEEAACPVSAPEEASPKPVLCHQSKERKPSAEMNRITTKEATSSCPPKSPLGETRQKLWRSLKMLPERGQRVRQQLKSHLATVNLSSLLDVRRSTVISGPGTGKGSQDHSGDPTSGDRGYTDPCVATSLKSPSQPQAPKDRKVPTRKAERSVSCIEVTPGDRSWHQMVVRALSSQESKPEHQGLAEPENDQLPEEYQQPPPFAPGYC
Method in brief: as §1

SH2 and PTB domains [5] = target: T5, SH2 and PTB domains (Homo sapiens, UniProt P20936)
T5 construct: thioredoxin; made in house; host or cells: BL21(DE3)pLysS E. coli
T5 sequence (P20936 1-1047): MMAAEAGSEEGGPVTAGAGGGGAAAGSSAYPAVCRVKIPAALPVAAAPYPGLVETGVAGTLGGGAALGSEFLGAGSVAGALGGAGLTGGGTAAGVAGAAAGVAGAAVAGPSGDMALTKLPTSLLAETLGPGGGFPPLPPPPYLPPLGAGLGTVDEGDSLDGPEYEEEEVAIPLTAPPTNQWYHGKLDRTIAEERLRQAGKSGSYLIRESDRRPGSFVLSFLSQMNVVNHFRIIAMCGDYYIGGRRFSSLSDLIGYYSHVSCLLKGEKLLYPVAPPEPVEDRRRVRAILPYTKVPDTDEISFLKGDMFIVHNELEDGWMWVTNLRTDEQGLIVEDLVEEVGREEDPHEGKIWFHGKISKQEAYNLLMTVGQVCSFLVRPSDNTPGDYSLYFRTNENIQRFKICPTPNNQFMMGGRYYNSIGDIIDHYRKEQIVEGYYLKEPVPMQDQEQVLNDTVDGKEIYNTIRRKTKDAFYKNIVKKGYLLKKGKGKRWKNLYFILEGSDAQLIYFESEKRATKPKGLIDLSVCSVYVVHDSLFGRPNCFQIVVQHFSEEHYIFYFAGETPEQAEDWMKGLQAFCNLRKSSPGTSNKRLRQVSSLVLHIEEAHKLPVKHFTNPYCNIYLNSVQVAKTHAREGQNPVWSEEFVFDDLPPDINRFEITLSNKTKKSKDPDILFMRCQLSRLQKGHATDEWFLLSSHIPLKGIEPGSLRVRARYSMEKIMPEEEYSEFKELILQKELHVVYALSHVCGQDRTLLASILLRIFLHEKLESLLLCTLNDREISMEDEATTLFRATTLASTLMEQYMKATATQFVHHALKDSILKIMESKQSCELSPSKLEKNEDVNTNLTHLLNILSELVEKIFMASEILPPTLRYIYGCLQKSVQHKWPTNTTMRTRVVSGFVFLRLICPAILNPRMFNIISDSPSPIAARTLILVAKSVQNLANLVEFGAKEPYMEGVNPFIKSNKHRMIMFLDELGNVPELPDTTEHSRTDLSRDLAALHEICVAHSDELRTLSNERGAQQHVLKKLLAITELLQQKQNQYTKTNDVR
Method in brief: as §1

[6] = PM assay replicate # 39307, array fabrication # 39286
[7] = PM assay replicate # 39351, array fabrication # 39336
[8] = PM assay replicate # 39352, array fabrication # 39336
[9] = protein RASA1-NC, PM assay replicate # 39337, array fabrication # 39329
[10] = PM assay replicate # 39337, array fabrication # 39329

T1 sequence (P08631 whole entry, the tested form may be a part): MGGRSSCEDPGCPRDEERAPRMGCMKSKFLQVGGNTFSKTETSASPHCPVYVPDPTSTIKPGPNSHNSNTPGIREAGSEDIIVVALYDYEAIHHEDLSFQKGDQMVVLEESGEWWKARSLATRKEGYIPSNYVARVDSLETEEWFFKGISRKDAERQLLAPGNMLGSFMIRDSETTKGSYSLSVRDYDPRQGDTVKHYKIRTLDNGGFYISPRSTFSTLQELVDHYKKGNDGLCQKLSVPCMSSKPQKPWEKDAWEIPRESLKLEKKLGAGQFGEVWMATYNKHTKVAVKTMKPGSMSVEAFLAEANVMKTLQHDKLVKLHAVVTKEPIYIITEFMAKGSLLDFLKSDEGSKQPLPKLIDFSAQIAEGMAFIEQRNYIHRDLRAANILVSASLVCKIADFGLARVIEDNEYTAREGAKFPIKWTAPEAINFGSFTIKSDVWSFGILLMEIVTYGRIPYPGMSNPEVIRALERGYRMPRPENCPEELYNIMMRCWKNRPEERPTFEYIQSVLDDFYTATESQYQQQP

| SMILES | Kd (SH2 and PTB domains [1]; [6]) | Kd (SH2 and PTB domains [2]; protein PTPN6-C, PM assay replicate # 39307, array fabrication # 39286) | Kd (SH2 and PTB domains [3]; [6]) | Kd (SH2 and PTB domains [3]; [7]) | Kd (SH2 and PTB domains [3]; [8]) | Kd (SH2 and PTB domains [4]) | Kd (SH2 and PTB domains [5]; protein RASA1-N, PM assay replicate # 39307, array fabrication # 39286) | Kd (SH2 and PTB domains [5]; [9]) | Kd (SH2 and PTB domains [3]; [10]) | Kd (SH2 and PTB domains [1]; PM assay replicate # 39336, array fabrication # 39329) | Kd (SH2 and PTB domains [1]; [10]) | Kd (SH2 and PTB domains [5]; protein RASA1-C, PM assay replicate # 39337, array fabrication # 39329) | Kd (SH2 and PTB domains [5]; protein RASA1-N, PM assay replicate # 39336, array fabrication # 39329) | Kd (SH2 and PTB domains [5]; protein RASA1-N, PM assay replicate # 39337, array fabrication # 39329) | Kd (SH2 and PTB domains [5]; protein RASA1-NC, PM assay replicate # 39336, array fabrication # 39329) | Kd (SH2 and PTB domains [5]; protein RASA1-NC, PM assay replicate # 39603, array fabrication # 39392) | Kd (SH2 and PTB domains [2]; protein PTPN6-NC, PM assay replicate # 39336, array fabrication # 39329) | Kd (SH2 and PTB domains [2]; protein PTPN6-NC, PM assay replicate # 39337, array fabrication # 39329) |
| --- | --- | --- | --- | --- | --- | --- | --- | --- | --- | --- | --- | --- | --- | --- | --- | --- | --- | --- |
| CC[C@H](C)[C@H](NC(=O)[C@H](CC(N)=O)NC(=O)[C@H](CC(N)=O)NC(=O)[C@H](CCCCN)NC(=O)[C@H](CC(C)C)NC(=O)[C@H](Cc1ccc(OP(=O)(O)O)cc1)NC(=O)[C@H](CCC(=O)O)NC(=O)[C@H](C)NC(=O)[C@H](CCCCN)NC(=O)CNC(=O)[C@H](CC(C)C)NC(=O)[C@@H](NC(=O)[C@H](CC(N)=O)NC(=O)[C@H](C)NC(=O)[C@@H](N)Cc1ccccc1)[C@@H](C)O)C(=O)N[C@@H](CC(C)C)C(=O)N[C@@H](CO)C(=O)N[C@@H](CC(=O)O)C(=O)O [ErbB4 pY1221 (18-mer)] (HELM PEPTIDE1{F.A.N.T.L.G.K.A.E.[O=C([C@H](Cc1ccc(OP(=O)(O)O)cc1)N[*:1])[*:2]].L.K.N.N.I.L.S.D}$$$$V2.0) | 70 nM | 716010 nM | 1240 nM | 2360 nM | 10860 nM | 990 nM |  |  |  |  |  |  |  |  |  |  |  |  |
| CCN(CC)c1ccc2c(-c3ccc(C(=O)N[C@@H](CC(N)=O)C(=O)NCC(=O)N4CCC[C@H]4C(=O)N4CCC[C@H]4C(=O)N[C@@H](CCCCN)C(=O)N[C@@H](C)C(=O)N[C@@H](CCC(=O)O)C(=O)N[C@@H](CC(=O)O)C(=O)N[C@@H](CCC(=O)O)C(=O)N[C@@H](Cc4ccc(OP(=O)(O)O)cc4)C(=O)N[C@H](C(=O)N[C@@H](CC(N)=O)C(=O)N[C@@H](CCC(=O)O)C(=O)N4CCC[C@H]4C(=O)N[C@@H](CC(C)C)C(=O)N[C@@H](Cc4ccc(O)cc4)C(=O)N[C@@H](CC(C)C)C(=O)N[C@@H](CC(=O)O)C(=O)O)C(C)C)cc3C(=O)[O-])c3ccc(=[N+](CC)CC)cc-3oc2c1 [ErbB4 1202 (18-mer)] (HELM PEPTIDE1{[CCN(CC)c1ccc2c(-c3ccc(C(=O)[*:2])cc3C(=O)[O-])c3ccc(=[N+](CC)CC)cc-3oc2c1].N.G.P.P.K.A.E.D.E.[O=C([C@H](Cc1ccc(OP(=O)(O)O)cc1)N[*:1])[*:2]].V.N.E.P.L.Y.L.D}$$$$V2.0) |  |  | 500 nM | 1610 nM | 15930 nM | 970 nM | 660 nM | 8560 nM | 2060 nM |  |  |  |  |  |  |  |  |  |
| CC(C)C[C@H](NC(=O)[C@@H]1CCCN1C(=O)[C@H](C)NC(=O)[C@@H](NC(=O)[C@H](Cc1ccc(OP(=O)(O)O)cc1)NC(=O)CNC(=O)[C@H](CC(=O)O)NC(=O)[C@@H](NC(=O)[C@@H](N)CCC(=O)O)[C@@H](C)O)C(C)C)C(=O)N[C@H](C(=O)N[C@@H](CS)C(=O)N[C@@H](CO)C(=O)N[C@@H](CC(=O)O)C(=O)O)[C@@H](C)O [ErbB2 pY1127] |  |  |  |  |  |  |  | 30 nM |  | 4360 nM | 250 nM | 1210 nM | 590 nM | 110 nM | 120 nM | 60 nM | 1620 nM | 1620 nM |
